Results reported in patent US6713499B2, “7-Amino-benzothiazole derivatives” (Hoffman-La Roche Inc., priority 2001, dated 2004).

Target: T1, human adenosine A2A receptor (Homo sapiens, UniProt P29274)
T1 construct: expressed in transfected cells; host or cells: CHO cells, Semliki Forest virus expression system; washed membrane pellet used
Test: [3H]-SCH-58261 binding assay on membranes of CHO cells expressing the human adenosine A2A receptor
Conditions: [3H]-SCH-58261 (1 nM) displacement, CHO cell membranes, SPA beads, 1 hour at room temperature; Ki by Cheng-Prussoff equation
Experimental: Human Adenosine A2A Receptor
The human adenosine A2A receptor was recombinantly expressed in chinese hamster ovary (CHO) cells using the semliki forest virus expression system. Cells were harvested, washed twice by centrifugation, homogenised and again washed by centrifugation. The final washed membrane pellet was suspended in a Tris (50 mM) buffer containing 120 mM NaCl, 5 mM KCl, 2 mM CaCl2 and 10 mM MgCl2 (pH 7.4) (buffer A). The [3H]-SCH-58261 (Dionisotti et al., 1997, Br J Pharmacol 121, 353; 1 nM) binding assay was carried out in 96-well plates in the presence of 2.5 μg of membrane protein, 0.5 mg of Ysi-poly-1-lysine SPA beads and 0.1 U adenosine deaminase in a final volume of 200 μl of buffer A. Non-specific binding was defined using xanthine amine congener (XAC; 2 μM). Compounds were tested at 10 concentrations from 10 μM-0.3 nM. All assays were conducted in duplicate and repeated at least two times. Assay plates were incubated for 1 hour at room temperature before centrifugation and then bound ligand determined using a Packard Topcount scintillation counter. IC50 values were calculated using a non-linear curve fitting program and Ki values calculated using, the Cheng-Prussoff equation.

T1 sequence (P29274 whole entry): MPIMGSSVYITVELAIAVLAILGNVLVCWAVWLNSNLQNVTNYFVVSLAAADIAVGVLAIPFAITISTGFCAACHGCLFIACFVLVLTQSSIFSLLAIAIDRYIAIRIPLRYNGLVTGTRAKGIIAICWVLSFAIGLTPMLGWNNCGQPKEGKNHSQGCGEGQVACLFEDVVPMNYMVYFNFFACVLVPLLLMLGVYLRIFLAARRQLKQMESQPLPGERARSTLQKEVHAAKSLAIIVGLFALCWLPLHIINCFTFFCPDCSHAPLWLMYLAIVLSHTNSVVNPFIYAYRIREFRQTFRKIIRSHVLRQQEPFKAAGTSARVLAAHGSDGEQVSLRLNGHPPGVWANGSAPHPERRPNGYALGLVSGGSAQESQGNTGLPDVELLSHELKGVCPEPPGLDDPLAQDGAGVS

Structure (SMILES)	hA2 (pKi)
COc1ccc(N(C)C2CCOCC2)c2sc(NC(=O)c3ccnc(N4CCOCC4)c3)nc12 [Example 38, N-{4-Methoxy-4-[methyl-(tetrahydro-pyran-4-yl)-amino]-benzothiazol-2-yl}-2-morpholin-4-yl-isonicotinamide]	7.33

Same assay, conditions: [3H]-SCH-58261 (1 nM) displacement, CHO cell membranes, SPA beads, 1 hour at room temperature; Ki by Cheng-Prussoff equation; read-out: hA2 (pKi) (converted)

Structure (SMILES)	Ki
COCCN(C)c1ccc(OC)c2nc(NC(=O)c3ccccc3)sc12 [Example 1, N-{4-Methoxy-7-[(2-methoxy-ethyl)-methyl-amino]-benzothiazol-2-yl}-benzamide]	52.5 nM
COCCN(C)c1ccc(OC)c2nc(NC(=O)c3ccc(F)cc3)sc12 [Example 2, 4-Fluoro-N-{4-methoxy-7-[(2-methoxy-ethyl)-methyl-amino]-benzothiazol-2-yl}-benzamide]	38 nM
COCCN(C)c1ccc(OC)c2nc(NC(=O)c3ccc(CCl)cc3)sc12 [Example 3, 4-Chloromethyl-N-{4-methoxy-7-[(2-methoxy-ethyl)-methyl-amino]-benzothiazol-2-yl}-benzamide]	37.2 nM
COCCN(C)c1ccc(OC)c2nc(NC(=O)c3ccnc(N4CCOCC4)c3)sc12 [Example 6, N-{4-Methoxy-7-[(2-methoxy-ethyl)-methyl-amino]-benzothiazol-2-yl}-2-morpholin-4-yl-isonicotinamide]	52.5 nM
COc1ccc(N(Cc2ccc(C)cc2)C(C)=O)c2sc(NC(=O)c3ccccc3)nc12 [Example 10, N-{7-[Acetyl-(4-methyl-benzyl)-amino]-4-methoxy-benzothiazol-2-yl}-benzamide]	11.5 nM
COc1ccc(N(C)C)c2sc(NC(=O)c3ccc(F)cc3)nc12 [Example 12, N-(7-Dimethylamino-4-methoxy-benzothiazol-2-yl)-4-fluoro-benzamide]	74.1 nM
COc1ccc(N(C)Cc2ccccc2)c2sc(NC(=O)c3ccc(F)cc3)nc12 [Example 14, N-[7-(Benzyl-methyl-amino)-4-methoxy-benzothiazol-2-yl]-4-fluoro-benzamide]	38.9 nM
COc1ccc(N(C)Cc2ccccn2)c2sc(NC(=O)c3ccc(F)cc3)nc12 [Example 15, 4-Fluoro-N-[4-methoxy-7-(methyl-pyridin-2-ylmethyl-amino)-benzothiazol-2-yl]-benzamide]	61.7 nM
COc1ccc(N(C)Cc2ccccc2)c2sc(NC(=O)c3ccnc(C)c3)nc12 [Example 16, N-[7-(Benzyl-methyl-amino)-4-methoxy-benzothiazol-2-yl]-2-methyl-isonicotinamide]	15.5 nM
COc1ccc(N(C)CC(=O)N(C)C)c2sc(NC(=O)c3ccc(F)cc3)nc12 [Example 17, N-[7-(Dimethylcarbamoylmethyl-methyl-amino)-4-methoxy-benzothiazol-2-yl]-4-fluoro-benzamide]	60.3 nM
COc1ccc(N(C)C(C)=O)c2sc(NC(=O)c3ccc(F)cc3)nc12 [Example 19, N-[7-(Acetyl-methyl-amino)-4-methoxy-benzothiazol-2-yl]-4-fluoro-benzamide]	13.2 nM
CCN(CC(=O)N(C)C)c1ccc(OC)c2nc(NC(=O)c3ccc(F)cc3)sc12 [Example 20, N-[7-(Dimethylcarbamoylmethyl-ethyl-amino)-4-methoxy-benzothiazol-2-yl]-4-fluoro-benzamide]	61.7 nM
CCN(C(C)=O)c1ccc(OC)c2nc(NC(=O)c3ccc(F)cc3)sc12 [Example 21, N-[7-(Acetyl-ethyl-amino)-4-methoxy-benzothiazol-2-yl]-4-fluoro-benzamide]	10 nM
COc1ccc(N(Cc2ccccc2)C(C)=O)c2sc(NC(=O)c3ccc(F)cc3)nc12 [Example 24, N-[7-(Acetyl-benzyl-amino)-4-methoxy-benzothiazol-2-yl]-4-fluoro-benzamide]	10.7 nM
COc1ccc(N(Cc2ccccc2)C(C)=O)c2sc(NC(=O)c3ccnc(Br)c3)nc12 [Example 25, N-[7-(Acetyl-benzyl-amino)-4-methoxy-benzothiazol-2-yl]-2-bromo-isonicotinamide]	52.5 nM
COCCN(C(C)=O)c1ccc(OC)c2nc(NC(=O)c3ccc(F)cc3)sc12 [Example 26, N-{7-[Acetyl-(2-methoxy-ethyl)-amino]-4-methoxy-benzothiazol-2-yl}-4-fluoro-benzamide]	17.8 nM
COc1ccc(CN(C)c2ccc(OC)c3nc(NC(=O)c4ccc(F)cc4)sc23)cc1 [Example 28, 4-Fluoro-N-{4-methoxy-7-[(4-methoxy-benzyl)-methyl-amino]-benzothiazol-2-yl}-benzamide]	49 nM
COc1ccc(CN(C)c2ccc(OC)c3nc(NC(=O)c4ccnc(C)c4)sc23)cc1 [Example 30, N-{4-Methoxy-7-[(4-methoxy-benzyl)-methyl-amino]-benzothiazol-2-yl}-2-methyl-isonicotinamide]	26.3 nM
COc1ccc(N(C)Cc2ccccc2)c2sc(NC(=O)c3ccnc(Br)c3)nc12 [Example 32, N-[7-(Benzyl-methyl-amino)-4-methoxy-benzothiazol-2-yl]-2-bromo-isonicotinamide]	33.1 nM
COc1ccc(N(C)Cc2ccccc2)c2sc(NC(=O)c3ccnc(N4CCOCC4)c3)nc12 [Example 35, N-[7-(Benzyl-methyl-amino)-4-methoxy-benzothiazol-2-yl]-2-morpholin-4-yl-isonicotinamide]	11 nM
COc1ccc(N(C)C2CCOCC2)c2sc(NC(=O)c3ccc(F)cc3)nc12 [Example 37, 4-Fluoro-N-{4-methoxy-7-[methyl-(tetrahydro-pyran-4-yl)-amino]-benzothiazol-2-yl}-benzamide]	56.2 nM
